Usually kinact stands for the maximal first-order rate at which the target is inactivated. As a reminder, the kinact/KI is the maximal inactivation rate divided by the concentration that gives half of it.

The test system of assay [1] is K. pneumoniae with VIM (n=17). The assay is described as follows: Meropenem MIC distribution, K. pneumoniae with VIM. Format: cell-based. The conditions noted are these: MEM alone or +50 µM ZN148. On the procedure: (§1) MICs of carbapenems alone and in combination with inhibitors were determined by broth microdilution according to the Clinical and Laboratory Standards Institute (CLSI) guidelines ([48]) using either premade plates (TREK Diagnostic Systems/Thermo Fisher Scientific, East Grinstead, United Kingdom) with meropenem or in-house-prepared plates with meropenem, imipenem, and doripenem. ZN148 and other inhibitors were tested at a fixed concentration of 50 μM. Cation-adjusted Mueller-Hinton medium (TREK Diagnostic Systems/Thermo Fisher Scientific; Becton Dickinson, Franklin Lakes, NJ) were used as growth medium. The plates were incubated for 20 h at 37°C. ZN148, ZN222, ZN223, ZN228, and TPA were initially tested in combination with meropenem using two indicator strains: NDM-1-producing K. pneumoniae ([49], [50]) and VIM-2-producing P. aeruginosa ([51]). The activity of ZN148 were subsequently tested against two extended strain collections: (i) in combination with meropenem against MBL-producing Enterobacterales (n = 62), MBL-producing P. aeruginosa (n = 9) and MBL- and class D carbapenemase-coproducing Enterobacterales (n = 5) from the strain collection at the Norwegian National Advisory Unit on Detection of Antimicrobial Resistance and (ii) in combination with meropenem, imipenem, and doripenem against globally collected MBL-producing E. coli (n = 87), K. pneumoniae (n = 85), P. aeruginosa (n = 52), and A. baumannii (n = 6), MBL- and class A/D carbapenemase-coproducing E. coli (n = 11), K. pneumoniae (n = 15) and A. baumannii (n = 7) at IHMA Europe, Sàrl, Switzerland. E. coli ATCC 25922 and P. aeruginosa ATCC 27853 were used as quality control strains. The MBL inhibitors were also tested for intrinsic antibacterial activity against the strains.

For assay [2], the system named is Other Enterobacterales with MBLs (n=10). In words: Meropenem MIC distribution, other Enterobacterales with MBLs. In kind it is cell-based. The conditions noted are these: MEM alone or +50 µM ZN148. On the procedure: as §1
Assay [3] deals with strains coproducing MBLs and class D carbapenemases. In words: Carbapenem potentiation, strains coproducing MBLs and class D carbapenemases. In kind it is cell-based. The conditions noted are these: with a few exceptions; 50 μM ZN148. On the procedure: MICs of carbapenems alone and in combination with inhibitors were determined by broth microdilution according to the Clinical and Laboratory Standards Institute (CLSI) guidelines ([48]) using either premade plates (TREK Diagnostic Systems/Thermo Fisher Scientific, East Grinstead, United Kingdom) with meropenem or in-house-prepared plates with meropenem, imipenem, and doripenem. ZN148 and other inhibitors were tested at a fixed concentration of 50 μM. Cation-adjusted Mueller-Hinton medium (TREK Diagnostic Systems/Thermo Fisher Scientific; Becton Dickinson, Franklin Lakes, NJ) were used as growth medium. The plates were incubated for 20 h at 37°C. ZN148, ZN222, ZN223, ZN228, and TPA were initially tested in combination with meropenem using two indicator strains: NDM-1-producing K. pneumoniae ([49], [50]) and VIM-2-producing P. aeruginosa ([51]). […]

For assay [4], the target named is T1, VIM-2 (Escherichia coli, UniProt Q5U7L7).
T1 construct: made in house
The assay is described as follows: Time-dependent inactivation kinetics of purified VIM-2 (nitrocefin). Format: biochemical. On the procedure: Protein expression and purification of NDM-1 and VIM-2 were performed as previously described ([36], [43], [57]). Stock solutions of purified NDM-1 and VIM-2 were prepared in 50 mM HEPES buffer (pH 7.5; Merck). Inhibition of NDM-1 and VIM-2 were determined for ZN148 and the analogues ZN222, ZN223, and ZN228 at different concentrations of inhibitor after preincubation times of 2, 8, 15, 25, and 32 min in 50 mM HEPES buffer (pH 7.5) supplemented with 1 μM ZnSO4 (Sigma-Aldrich) and bovine serum albumin (Sigma-Aldrich; final concentration, 2 μg/ml) at 25°C. Concentrations of 1 nM VIM-2 and 30 nM NDM-1 were used, and the reaction was initiated by the addition of 30 μM nitrocefin (Merck) for VIM-2 or 100 μM imipenem (Sigma-Aldrich) for NDM-1. The reaction was measured at 482 nm (VIM-2) or […] (NDM-1) in either standard 96-well plates (Thermo Fisher Scientific) for VIM-2 or UV-transparent 96-well plates (Corning, Kennebunk, ME) for NDM-1 at 25°C in a SpectraMax Plus plate reader (Molecular Devices). All of the enzyme and substrate concentrations indicated are the final concentrations in the assay. The enzyme activity as a percentage was calculated based on the initial velocity and compared to the control without inhibitor compound. All tests were performed at least in duplicates.
The observed rate constant (kobs) per inhibitor concentration was calculated from the slope of a semilog plot of the enzyme activity in percent versus preincubation time.
By fitting these values, the irreversible kinetic parameters maximum inactivation rate (kinact) and the inhibitor concentration that produces half-maximal rate of inactivation (KI) were obtained. Finally, the inhibitors were characterized by calculating kinact/KI. Where no saturation curve could be observed, KI and kinact were determined from the linear part of plot 1/kobs versus 1/[I].

Assay [5] addresses T1, VIM-2. The assay is described as follows: LC-ESI-MS of VIM-2 incubated with inhibitor. The conditions noted are these: VIM-2 preincubated with 5 mM ZN148. On the procedure: VIM-2 (8 μM final concentration) was incubated together without or with 5 mM ZN148 on ice for 30 min. Incubation was carried out in Chelex HEPES buffer (pH 7.5), and the inhibitors were diluted in Milli-Q water (Millipore/Merck) by a factor of 1,000,000 using centrifugal filters (10,000 Da; Merck). Liquid chromatography electrospray ionization Q-TOF mass spectrometry (LC-ESI-MS; Agilent Technologies, Santa Clara, CA) was performed in positive-ion mode using 0.1% formic acid in Milli-Q water and acetonitrile (VWR, Radnor, PA) at 0.4 ml/min. Spectra deconvolution was performed by using BioConfirm and MassHunter qualitative analysis (Agilent Technologies).

Assay [6] relates to MBL-producing P. aeruginosa clinical strains. The assay is described as follows: Carbapenem MIC, MBL-producing P. aeruginosa. Format: cell-based. The conditions noted are these: 50 μM ZN148; n = 52. On the procedure:
as §1

A further assay deals with T2, NDM-1 (Klebsiella pneumoniae, UniProt C7C422).
T2 construct: made in house
T2 sequence (C7C422 29-270, looked up): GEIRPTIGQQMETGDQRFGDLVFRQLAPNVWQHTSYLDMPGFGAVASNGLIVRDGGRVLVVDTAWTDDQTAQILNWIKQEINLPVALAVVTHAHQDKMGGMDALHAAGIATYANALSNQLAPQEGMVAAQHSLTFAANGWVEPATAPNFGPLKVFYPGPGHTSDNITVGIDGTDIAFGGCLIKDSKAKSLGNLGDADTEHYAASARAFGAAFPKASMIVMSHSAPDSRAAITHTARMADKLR
The assay is described as follows: Zinc content determination by ICP-MS, NDM-1. Format: biochemical. The conditions noted are these: ICP-MS after preincubation.

For assay [7], the target named is T1, VIM-2. In kind it is biochemical. On the procedure:
For reversibility of enzyme activity after incubation with ZN148, 3 ml of VIM-2 or NDM-1 was diluted with or without ZN148 in Chelex HEPES buffer (pH 7.5) and subsequently incubated for 1 h on ice. Then, 2.5 ml of each solution was loaded onto an equilibrated PD-10 column (GE Healthcare, Pittsburgh, PA), washed with 1 ml, and eluted with 1.5 ml of Chelex HEPES buffer (pH 7.5), respectively. Samples spiked and not spiked with inhibitor were diluted to a final enzyme concentration of 1 nM VIM-2 and 3 nM NDM-1. The initial reaction velocity was determined by adding nitrocefin (Merck) for VIM-2 or imipenem (Sigma-Aldrich) for NDM-1 at final concentrations of 50 and 100 μM, respectively. The initial enzyme reactions were recorded at 25°C. Inhibitor and enzyme alone were included as controls. All measurements were performed at least in duplicates. For enzyme restorability, pre- and postcolumn samples were supplemented with ZnSO4 (Sigma-Aldrich) to a final concentration of 100 μM and allowed to incubate for 5 min at 25°C. The initial enzyme velocity was then determined as described above.

SMILES strings stand for the structures.

`C[C@@H](O)[C@H]1C(=O)N2C(C(=O)O)=C(S[C@@H]3CN[C@H](C(=O)N(C)C)C3)[C@H](C)[C@H]12` [meropenem]: the “No. of strains with indicated MIC” value in assay [1] (MIC 2 mg/L) came out at 2; in assay [1] (MIC 4 mg/L), 2; in assay [1] (MIC 8 mg/L), 1; in assay [1] (MIC 16 mg/L) it was 4; in assay [1] (MIC 32 mg/L), 3; in assay [1] (MIC ≥64 mg/L), 5. In addition, the “No. of strains with indicated MIC” value in assay [2] (MIC 4 mg/L) amounted to 1; in assay [2] (MIC 8 mg/L), 2; in assay [2] (MIC 16 mg/L) it was 3; in assay [2] (MIC 32 mg/L) it was 2; in assay [2] (MIC ≥64 mg/L), 2.

In the case of `CN(C[C@H](O)[C@@H](O)[C@H](O)[C@H](O)CO)C(=O)c1ccc(CN(Cc2ccccn2)Cc2ccccn2)nc1` [ZN148], the “potentiation of meropenem, doripenem, and imipenem” value in assay [3] is reported as “no potentiation”. In addition, on VIM-2 [4], the kinact was 0.00262 s⁻¹ and the inactivation efficiency (kinact/KI) was 110 M⁻¹ s⁻¹. On VIM-2 [5], the “change in mass of VIM-2” value is 46.2 ± 0.1 Da. In assay [6], the “strains with restored clinical susceptibility, in combination with doripenem” value is reported as 15%; the “strains with restored clinical susceptibility, in combination with imipenem” value worked out at 25%; the “strains with restored clinical susceptibility, in combination with meropenem” value was 17%. Moreover, the “zinc removed from enzyme” value at NDM-1 is given as around 1.3 molar equivalents. For the same molecule, the mode of inhibition entry on VIM-2 [7] is “irreversible”. The “MBL activity restored by addition of exogenous zinc, compared to untreated control” value on VIM-2 [7] (after incubation with inhibitor and its removal (PD-10), 100 μM ZnSO4) was around 30%.
